Molecules are shown by their SMILES.

The assay deals with IL-2 production. Put plainly: Inhibition of IL-2 production in PHA-activated Jurkat cells (ELISA). The class given is cell-based. The settings on record: Homo sapiens, PHA 2.5 μg/mL, 20 hours, IL-2 ELISA. The procedure: Jurkat cells were placed in a 96 well plate (0.5 million cells per well in 1% FBS medium) then a test compound of this invention was added at different concentrations. After 10 minutes, the cells were activated with PHA (final concentration 2.5 μg/mL) and incubated for 20 hours at 37° C. under CO2. The final volume was 200 μL. Following incubation, the cells were centrifuged and the supernatants were collected and stored at −70° C. prior to assaying for IL-2 production. A commercial ELISA kit (IL-2 Eli-pair, Diaclone Research, Besancon, France) was used to detect production of IL-2, from which dose response curves were obtained. The IC50 value was calculated as the concentration at which 50% of maximum IL-2 production after stimulation was inhibited versus a non-stimulation control.
One may read the IC50 as the concentration needed to halve the response being measured. On to `COc1cc(OC)cc(C(=O)Nc2cnc(-n3c(C(F)(F)F)nc4cc(OC)ccc43)cn2)c1` [Compound 129, 3,5-Dimethoxy-N-[5-(5-methoxy-2-trifluoromethyl-benzoimidazol-1-yl)-pyrazin-2-yl]-benzamide], for which the IC50 was over 1000 nM. The value for `COc1ccc2c(c1)nc(C(F)(F)F)n2-c1cnc(NC(=O)c2cc(OC)c(OC)cc2OC)cn1` [Compound 136, 2,4,5-Trimethoxy-N-[5-(5-methoxy-2-trifluoromethyl-benzoimidazol-1-yl)-pyrazin-2-yl]-benzamide] was over 1000 nM; that for `COc1ccc2c(c1)nc(C(F)(F)F)n2-c1cnc(NC(=O)c2ccc(Br)cc2)cn1` [Compound 107, 4-Bromo-N-[5-(5-methoxy-2-trifluoromethyl-benzoimidazol-1-yl)-pyrazin-2-yl]-benzamide] was 18 nM. `COc1ccc2c(c1)nc(C(F)(F)F)n2-c1cnc(NC(=O)c2ccc(F)cc2Br)cn1` [Compound 138, 2-Bromo-4-fluoro-N-[5-(5-methoxy-2-trifluoromethyl-benzoimidazol-1-yl)-pyrazin-2-yl]-benzamide] returned an IC50 of 83 nM. The same measure for `COc1ccc2c(c1)nc(C(F)(F)F)n2-c1cnc(NC(=O)c2cccc(C)c2C)cn1` [Compound 92, N-[5-(5-Methoxy-2-trifluoromethyl-benzoimidazol-1-yl)-pyrazin-2-yl]-2,3-dimethyl-benzamide]: 17 nM; for `COc1ccc2c(c1)nc(C(F)(F)F)n2-c1cnc(NCc2ccncc2)cn1` [Compound 105, [5-(5-Methoxy-2-trifluoromethyl-benzoimidazol-1-yl)-pyrazin-2-yl]-pyridin-4-ylmethyl-amine]: over 1000 nM; for `COc1ccc2c(c1)nc(C(F)(F)F)n2-c1cnc(NCc2ccccc2OC)cn1` [Compound 102, (2-Methoxy-benzyl)-[5-(5-methoxy-2-trifluoromethyl-benzoimidazol-1-yl)-pyrazin-2-yl]-amine]: over 1000 nM. The same measure for `COc1cccc(C(=O)Nc2cnc(-n3c(C(F)(F)F)nc4cc(OC)ccc43)cn2)c1` [Compound 104, 3-Methoxy-N-[5-(5-methoxy-2-trifluoromethyl-benzoimidazol-1-yl)-pyrazin-2-yl]-benzamide]: 929 nM. The same measure for `COc1ccc2c(c1)nc(C(F)(F)F)n2-c1cnc(NC(=O)c2ccccc2OC)cn1` [Compound 111, 2-Methoxy-N-[5-(5-methoxy-2-trifluoromethyl-benzoimidazol-1-yl)-pyrazin-2-yl]-benzamide]: over 1000 nM; for `COc1ccc2c(c1)nc(C(F)(F)F)n2-c1cnc(NC(=O)c2cccc(C)c2)cn1` [Compound 116, N-[5-(5-Methoxy-2-trifluoromethyl-benzoimidazol-1-yl)-pyrazin-2-yl]-3-methyl-benzamide]: 170 nM.

Turning to `COc1ccc2c(c1)nc(C(F)(F)F)n2-c1cnc(NCc2ccccc2F)cn1` [Compound 41, (2-Fluoro-benzyl)-[5-(5-methoxy-2-trifluoromethyl-benzoimidazol-1-yl)-pyrazin-2-yl]-amine], the midpoint of inhibition, the IC50, lay at 396 nM. The same measure for `COC(=O)c1ccc2c(c1)nc(C(F)(F)F)n2-c1cnc(NC(=O)c2ccncc2C)cn1` [Compound 28, 1-{5-[(3-Methyl-pyridine-4-carbonyl)-amino]-pyrazin-2-yl}-2-trifluoromethyl-1H-benzoimidazole-5-carboxylic acid methyl ester]: 112 nM; for `COc1ccc2c(c1)nc(C(F)(F)F)n2-c1cnc(NC(=O)c2cccc(Cl)c2)cn1` [Compound 96, 3-Chloro-N-[5-(5-methoxy-2-trifluoromethyl-benzoimidazol-1-yl)-pyrazin-2-yl]-benzamide]: 91 nM; for `COc1ccc2c(c1)nc(C(F)(F)F)n2-c1cnc(NC(=O)c2ccc(C(F)(F)F)cc2OC)cn1` [Compound 144, 2-Methoxy-N-[5-(5-methoxy-2-trifluoromethyl-benzoimidazol-1-yl)-pyrazin-2-yl]-4-trifluoromethyl-benzamide]: over 1000 nM.

`COc1ccc2c(c1)nc(C(F)(F)F)n2-c1cnc(NC(=O)c2ccc(F)cc2F)cn1` [Compound 7, 2,4-Difluoro-N-[5-(5-methoxy-2-trifluoromethyl-benzoimidazol-1-yl)-pyrazin-2-yl]-benzamide] gave an IC50 of 33 nM. As to `COc1ccc2c(c1)nc(C(F)(F)F)n2-c1cnc(NCc2ccccc2Cl)cn1` [Compound 87, (2-Chloro-benzyl)-[5-(5-methoxy-2-trifluoromethyl-benzoimidazol-1-yl)-pyrazin-2-yl]-amine], the IC50 is over 1000 nM. The same measure for `CCOc1ccc(C(=O)Nc2cnc(-n3c(C(F)(F)F)nc4cc(OC)ccc43)cn2)cc1` [Compound 133, 4-Ethoxy-N-[5-(5-methoxy-2-trifluoromethyl-benzoimidazol-1-yl)-pyrazin-2-yl]-benzamide]: over 1000 nM.

Turning to `COc1ccc2c(c1)nc(C(F)(F)F)n2-c1cnc(NC(=O)c2ccc(C#N)cc2)cn1` [Compound 93, 4-Cyano-N-[5-(5-methoxy-2-trifluoromethyl-benzoimidazol-1-yl)-pyrazin-2-yl]-benzamide], the IC50 stood at 181 nM.

Regarding `COc1ccc(C(=O)Nc2cnc(-n3c(C(F)(F)F)nc4cc(OC)ccc43)cn2)c(OC)c1` [Compound 124, 2,4-Dimethoxy-N-[5-(5-methoxy-2-trifluoromethyl-benzoimidazol-1-yl)-pyrazin-2-yl]-benzamide], the IC50 is over 1000 nM.

As for `COc1ccc2c(c1)nc(C(F)(F)F)n2-c1cnc(NC(=O)c2ccc([N+](=O)[O-])cc2)cn1` [Compound 97, N-[5-(5-Methoxy-2-trifluoromethyl-benzoimidazol-1-yl)-pyrazin-2-yl]-4-nitro-benzamide], inhibition was half-maximal at 307 nM (IC50). The value for `COc1ccc2c(c1)nc(C(F)(F)F)n2-c1cnc(NC(=O)c2cccc([N+](=O)[O-])c2C)cn1` [Compound 135, N-[5-(5-Methoxy-2-trifluoromethyl-benzoimidazol-1-yl)-pyrazin-2-yl]-2-methyl-3-nitro-benzamide] was 103 nM. Molecule `COc1ccc2c(c1)nc(C(F)(F)F)n2-c1cnc(NC(=O)c2ccc(C)cc2C)cn1` [Compound 94, N-[5-(5-Methoxy-2-trifluoromethyl-benzoimidazol-1-yl)-pyrazin-2-yl]-2,4-dimethyl-benzamide] gave an IC50 of 78 nM. The value for `COc1ccc2c(c1)nc(C(F)(F)F)n2-c1cnc(NCc2ccc(F)cc2)cn1` [Compound 89, (4-Fluoro-benzyl)-[5-(5-methoxy-2-trifluoromethyl-benzoimidazol-1-yl)-pyrazin-2-yl]-amine] was over 1000 nM; that for `COc1ccc2c(c1)nc(C(F)(F)F)n2-c1cnc(NC(=O)c2cc(C)ccc2C)cn1` [Compound 122, N-[5-(5-Methoxy-2-trifluoromethyl-benzoimidazol-1-yl)-pyrazin-2-yl]-2,5-dimethyl-benzamide] was 73 nM. In the case of `COc1ccc2c(c1)nc(C(F)(F)F)n2-c1cnc(NC(=O)c2ccc(Cl)c([N+](=O)[O-])c2)cn1` [Compound 139, 4-Chloro-N-[5-(5-methoxy-2-trifluoromethyl-benzoimidazol-1-yl)-pyrazin-2-yl]-3-nitro-benzamide], the IC50 was over 1000 nM. Molecule `COc1ccc2c(c1)nc(C(F)(F)F)n2-c1cnc(NCc2ccccc2)cn1` [Compound 115, Benzyl-[5-(5-methoxy-2-trifluoromethyl-benzoimidazol-1-yl)-pyrazin-2-yl]-amine] came in with an IC50 of over 1000 nM.

As to `COc1ccc2c(c1)nc(C(F)(F)F)n2-c1cnc(NC(=O)c2ccc(C(F)(F)F)cc2)cn1` [Compound 137, N-[5-(5-Methoxy-2-trifluoromethyl-benzoimidazol-1-yl)-pyrazin-2-yl]-4-trifluoromethyl-benzamide], the IC50 stood at 714 nM. Molecule `COc1ccc2c(c1)nc(C(F)(F)F)n2-c1cnc(NC(=O)c2ccc(SC)cc2)cn1` [Compound 119, N-[5-(5-Methoxy-2-trifluoromethyl-benzoimidazol-1-yl)-pyrazin-2-yl]-4-methylsulfanyl-benzamide] had an IC50 of 50 nM. The value for `COc1ccc2c(c1)nc(C(F)(F)F)n2-c1cnc(NC(=O)c2ccc(C(C)C)cc2)cn1` [Compound 141, 4-Isopropyl-N-[5-(5-methoxy-2-trifluoromethyl-benzoimidazol-1-yl)-pyrazin-2-yl]-benzamide] was over 1000 nM.

With `COc1ccc2c(c1)nc(C(F)(F)F)n2-c1cnc(NC(=O)c2ccc(C(C)(C)C)cc2)cn1` [Compound 132, 4-tert-Butyl-N-[5-(5-methoxy-2-trifluoromethyl-benzoimidazol-1-yl)-pyrazin-2-yl]-benzamide], the half-inhibitory concentration (IC50) was over 1000 nM. Molecule `COc1ccc2c(c1)nc(C(F)(F)F)n2-c1cnc(NC(=O)c2cc(Cl)ccc2F)cn1` [Compound 148, 5-Chloro-2-fluoro-N-[5-(5-methoxy-2-trifluoromethyl-benzoimidazol-1-yl)-pyrazin-2-yl]-benzamide] yielded an IC50 of 98 nM. The same measure for `COc1ccc2c(c1)nc(C(F)(F)F)n2-c1cnc(NC(=O)c2cc(F)ccc2Cl)cn1` [Compound 151, 2-Chloro-5-fluoro-N-[5-(5-methoxy-2-trifluoromethyl-benzoimidazol-1-yl)-pyrazin-2-yl]-benzamide]: 27 nM; for `COc1ccc2c(c1)nc(C(F)(F)F)n2-c1cnc(NC(=O)c2ccc([N+](=O)[O-])cc2F)cn1` [Compound 150, 2-Fluoro-N-[5-(5-methoxy-2-trifluoromethyl-benzoimidazol-1-yl)-pyrazin-2-yl]-4-nitro-benzamide]: 126 nM. The value for `COc1ccc2c(c1)nc(C(F)(F)F)n2-c1cnc(NC(=O)c2ccccc2Cl)cn1` [Compound 99, 2-Chloro-N-[5-(5-methoxy-2-trifluoromethyl-benzoimidazol-1-yl)-pyrazin-2-yl]-benzamide] was 52 nM.

For the origin of these results see patent US8119643B2, “Benzoimidazolyl-pyrazine compounds for inflammation and immune-related uses” (Synta Pharmaceuticals Corp., priority 2006, dated 2012).
